# Laboratory results from US20240209028A1, “CNP COMPOUNDS” (priority 2022, published 2024).
# Starred links: 1 amine or outer side, 2 acyl side, 3 side chain; linkers in the order of their positions; H or OH if unused. Positions of bridges follow the written chain, without caps; N, C: chain ends. Residues, ends and D or L forms follow the SMILES beside them. *: point of attachment. C18 diacid = O=C(O)CCCCCCCCCCCCCCCCC(=O)*; γGlu = O=C(O)[C@H](CCC(=O)[*:2])N[*:1]; AEEA = NCCOCCOCC(=O)O
# Experiment: Accelerated chemical stability (RP-UPLC recovery and LCMS degradation pattern, 37° C.)
# Type: physicochemical
# Design: Isomers TZ / Isomers 2 W / Loss of 18 amu TZ / Loss of 18 amu 2 W / Fragments TZ / Fragments 2 W / Fragments 1 W / Fragments 3 W / Fragments 4 W / Fragments 5 W / Fragments 6 W / Others 1 W / Others 3 W / Others 4 W / Others 5 W / Others 6 W / Isomers 1 W / Isomers 3 W / Isomers 4 W / Isomers 5 W / Isomers 6 W / Loss of 18 amu 1 W / Loss of 18 amu 3 W / Loss of 18 amu 4 W / Loss of 18 amu 5 W / Loss of 18 amu 6 W: unit not given here
# Settings: LCMS; for Fragments 2 W / Isomers 2 W / Loss of 18 amu 2 W / Others 2 W: 2 weeks at 37° C.; for Fragments TZ / Isomers TZ / Loss of 18 amu TZ / Others TZ: time zero
# Method: In order to determine the chemical stability of CNP compounds in formulation, samples of CNP compounds in buffer were exposed to accelerated chemical degradation by heating. The stability of a given peptide was assessed by measuring recovery of intact peptide by quantification by RP-UPLC. To assess the chemical degradation pattern samples were also analysed by LC-MS.
# Sample preparation: Samples for the 2 week study were prepared according to the principles described in Example 5.
# Samples for the 6 week study were prepared by dissolving lyophilized peptide in buffer (8 mM phosphate, 250 mM glycerol, pH 7.4) to a nominal peptide concentration of 5000 nmol/ml followed by pH adjustment with 0.1 N HCl to pH 6.5.
# Incubation: For the 2 week study a time-zero (TZ) sample was pulled and stored at −18° C. and the remaining volume was incubated at 37° C. Samples were pulled and stored at −18° C. after 2 weeks of incubation. Frozen samples were thawed, diluted to about 200 nmol/mL and the extent of chemical degradation was determined using LCMS as described.
# For the 6 week study a time-zero (TZ) sample was pulled and stored at −18° C. and the remaining volume was incubated at 37° C. Samples were pulled on a weekly basis and stored at −18° C. until the last sampling time point at 6 weeks. Frozen samples were thawed, diluted to about 200 nmol/mL and the extent of chemical degradation was determined using RP-UPLC and LCMS as described.
# Analysis of peptide recovery by RP-UPLC: The RP-UPLC method was performed on a Waters ACQUITY H-CLASS UPLC system fitted with a PDA detector. Separation was carried out on an ACQUITY UPLC BEH C8 Column (130 Å, 1.7 μm, 2.1 mm×150 mm) operating at a column temperature of 50° C. with eluent A (19.59 mM NH4H2PO4 41.71 mM (NH4)2HPO4, pH 6.5 and MeCN 9:1 v:v) and eluent B (80% MeCN in water). UV-detection was carried out at 214 nm. The analysis was performed by injection of 3 μL of sample onto the column which was eluted with a 1-step linear gradient of eluents A and B from 27 to 30% B over 20 minutes followed by a wash at 95% B over 2 minutes followed by a re-equilibration phase for 7 minutes at a constant flow rate of 0.3 mL/min. This yielded an analysis time of 30 minutes per sample. The area of the peak corresponding to intact CNP compound was given on a percentage scale relative to the total peptide peak area.
# Analysis of chemical degradation patterns by LCMS: Samples were analysed on a […] UPLC from Thermo Scientific, using a Waters Acquity C18 reversed-phase column, 300 Å, […] particles 1 mm×150 mm. The compounds were separated by a linear gradient of solvent B from 5% to 55% over 48 minutes, using solvent A: water, 0.1% formic acid with 0.02% TFA and solvent B: acetonitrile, 0.1% formic acid with 0.02% TFA. Mass spectra were acquired by a Q Exactive Plus hybrid Quadrupole-Orbitrap mass spectrometer, BioPharma option (Thermo Scientific) interfaced with H-ESI II ion source. Data acquisitions were performed with a m/z 500 to 2000 scan range and a resolution of 30000.
# The data list was aggregated into a summed table of the compounds. The table headers were defined as follows: […]
# Results: The results from LCMS analysis of a 2 week accelerated degradation study on several CNP compounds of the present invention are summarised in Table 12. The results from RP-UPLC and LCMS analysis of a 6 week accelerated degradation study on CNP compound 9482 (Chem. 137) is summarised in Table 13 and Table 14 respectively.
# [1] = 8 mM sodium phosphate, 250 mM glycerol, pH 6.5
# [2] = 6 week study, 3 weeks at 37° C.
# [3] = 6 week study, 4 weeks at 37° C.
# [4] = 6 week study, 5 weeks at 37° C.
# [5] = 6 week study, 6 weeks at 37° C.
# [6] = 5 mM sodium acetate, 250 mM glycerol, pH 4
structure (smiles),measurement,setting,value
CC[C@H](C)[C@@H]1NC(=O)[C@H](CCCNC(=N)N)NC(=O)[C@H](CC(=O)O)NC(=O)[C@H](CC(C)C)NC(=O)[C@@H]2CCCN2C(=O)[C@H](CC(C)C)NC(=O)CNC(=O)[C@H](Cc2ccccc2)NC(=O)[C@@H](NC(=O)CNC(=O)[C@H](CCC(N)=O)NC(=O)[C@H](CO)NC(=O)[C@H](CC(C)C)NC(=O)CNC(=O)[C@H](CCCCN)NC(=O)[C@H](CCCCN)NC(=O)[C@H](CCC(N)=O)NC(=O)[C@H](C)NC(=O)CNC(=O)[C@H](CCCCN)NC(=O)[C@H](Cc2ccc(O)cc2)NC(=O)COCCOCCNC(=O)COCCOCCNC(=O)COCCOCCNC(=O)COCCOCCNC(=O)CC[C@H](NC(=O)CC[C@H](NC(=O)CC[C@H](NC(=O)CCCCCCCCCCCCCCCCC(=O)O)C(=O)O)C(=O)O)C(=O)O)CSSC[C@@H](C(=O)O)NC(=O)CNC(=O)[C@H](CC(C)C)NC(=O)CNC(=O)[C@H](CO)NC(=O)[C@H](CC(C)C)NC(=O)[C@H](CO)NC(=O)CNC1=O [Compound 9480] ({C18 diacid-γGlu-γGlu-γGlu-AEEA-AEEA-AEEA-AEEA}-YKGAQKKGLSQGCFGLPLDRIGSLSGLGC-OH; disulfide 13-29),Fragments 2 W,[1],0
same,Isomers 2 W,[1],0
same,Loss of 18 amu 2 W,[1],0
same,Others 2 W,[1],0.6%
same,Fragments TZ,[1],0
same,Isomers TZ,[1],0
same,Loss of 18 amu TZ,[1],0
same,Others TZ,[1],0%
CC[C@H](C)[C@@H]1NC(=O)[C@H](CCCNC(=N)N)NC(=O)[C@H](CC(=O)O)NC(=O)[C@H](CC(C)C)NC(=O)[C@@H]2CCCN2C(=O)[C@H](CC(C)C)NC(=O)CNC(=O)[C@H](Cc2ccccc2)NC(=O)[C@@H](NC(=O)CNC(=O)[C@H](CO)NC(=O)[C@H](CO)NC(=O)[C@H](CC(C)C)NC(=O)CNC(=O)[C@H](CCCCN)NC(=O)[C@H](CCCCN)NC(=O)[C@H](CCC(N)=O)NC(=O)[C@H](C)NC(=O)CNC(=O)[C@H](CCCCN)NC(=O)[C@H](Cc2ccc(O)cc2)NC(=O)[C@H](CCCCN)NC(=O)[C@H](CCCNC(=N)N)NC(=O)[C@H](C)NC(=O)[C@H](CCC(N)=O)NC(=O)[C@@H]2CCCN2C(=O)[C@H](Cc2c[nH]cn2)NC(=O)[C@H](CCC(=O)O)NC(=O)[C@H](CCC(N)=O)NC(=O)CC[C@H](NC(=O)CC[C@H](NC(=O)CC[C@H](NC(=O)CC[C@H](NC(=O)CC[C@H](NC(=O)CCCCCCCCCCCCCCCCC(=O)O)C(=O)O)C(=O)O)C(=O)O)C(=O)O)C(=O)O)CSSC[C@@H](C(=O)O)NC(=O)CNC(=O)[C@H](CC(C)C)NC(=O)CNC(=O)[C@H](CO)NC(=O)[C@H](CC(C)C)NC(=O)[C@H](CO)NC(=O)CNC1=O [compound 9482] ({C18 diacid-γGlu-γGlu-γGlu-γGlu-γGlu}-QEHPQARKYKGAQKKGLSSGCFGLPLDRIGSLSGLGC-OH; disulfide 21-37),Fragments 1 W,"6 week study, 1 week at 37° C.",0.20
same,Isomers 1 W,"6 week study, 1 week at 37° C.",0.00
same,Loss of 18 amu 1 W,"6 week study, 1 week at 37° C.",0.00
same,Others 1 W,"6 week study, 1 week at 37° C.",0.30
same,Fragments 2 W,6 week study,0.30
same,Isomers 2 W,6 week study,0.60
same,Loss of 18 amu 2 W,6 week study,0.10
same,Others 2 W,6 week study,0.3%
same,Fragments 3 W,[2],0.50
same,Isomers 3 W,[2],1.20
same,Loss of 18 amu 3 W,[2],0.10
same,Others 3 W,[2],0.30
same,Fragments 4 W,[3],0.90
same,Isomers 4 W,[3],1.70
same,Loss of 18 amu 4 W,[3],0.20
same,Others 4 W,[3],0.50
same,Fragments 5 W,[4],0.80
same,Isomers 5 W,[4],2.40
same,Loss of 18 amu 5 W,[4],0.20
same,Others 5 W,[4],0.40
same,Fragments 6 W,[5],1.20
same,Isomers 6 W,[5],3.90
same,Loss of 18 amu 6 W,[5],0.30
same,Others 6 W,[5],0.50
same,Fragments TZ,6 week study,0.00
same,Isomers TZ,6 week study,0.00
same,Loss of 18 amu TZ,6 week study,0.00
same,Others TZ,6 week study,0.2%
CC[C@H](C)[C@@H]1NC(=O)[C@H](CCCNC(=N)N)NC(=O)[C@H](CC(=O)O)NC(=O)[C@H](CC(C)C)NC(=O)[C@@H]2CCCN2C(=O)[C@H](CC(C)C)NC(=O)CNC(=O)[C@H](Cc2ccccc2)NC(=O)[C@@H](NC(=O)CNC(=O)[C@H](CCC(N)=O)NC(=O)[C@H](CO)NC(=O)CNC(=O)CNC(=O)[C@H](CCCCN)NC(=O)[C@H](CCCCN)NC(=O)[C@H](CCC(N)=O)NC(=O)[C@H](C)NC(=O)CNC(=O)[C@H](CCCCN)NC(=O)[C@H](Cc2ccc(O)cc2)NC(=O)COCCOCCNC(=O)COCCOCCNC(=O)COCCOCCNC(=O)COCCOCCNC(=O)CC[C@H](NC(=O)CC[C@H](NC(=O)CCCCCCCCCCCCCCCCC(=O)O)C(=O)O)C(=O)O)CSSC[C@@H](C(=O)O)NC(=O)CNC(=O)[C@H](CC(C)C)NC(=O)CNC(=O)[C@H](CO)NC(=O)[C@H](CC(C)C)NC(=O)[C@H](CO)NC(=O)CNC1=O [Compound 9435] ({C18 diacid-γGlu-γGlu-AEEA-AEEA-AEEA-AEEA}-YKGAQKKGGSQGCFGLPLDRIGSLSGLGC-OH; disulfide 13-29),Fragments 2 W,[6],0
same,Isomers 2 W,[6],0.6
same,Loss of 18 amu 2 W,[6],4.1
same,Others 2 W,[6],0%
same,Fragments TZ,[6],0
same,Isomers TZ,[6],0
same,Loss of 18 amu TZ,[6],0
same,Others TZ,[6],0%
CC[C@H](C)[C@@H]1NC(=O)[C@H](CCCNC(=N)N)NC(=O)[C@H](CC(=O)O)NC(=O)[C@H](CC(C)C)NC(=O)[C@@H]2CCCN2C(=O)[C@H](CC(C)C)NC(=O)CNC(=O)[C@H](Cc2ccccc2)NC(=O)[C@@H](NC(=O)CNC(=O)[C@H](CO)NC(=O)[C@H](CO)NC(=O)[C@H](CC(C)C)NC(=O)CNC(=O)[C@H](CCCCN)NC(=O)[C@H](CCCCN)NC(=O)[C@H](CCC(N)=O)NC(=O)[C@H](C)NC(=O)CNC(=O)[C@H](CCCCN)NC(=O)[C@H](Cc2ccc(O)cc2)NC(=O)[C@H](CCCCN)NC(=O)[C@H](CCCNC(=N)N)NC(=O)[C@H](C)NC(=O)[C@H](CCC(N)=O)NC(=O)[C@@H]2CCCN2C(=O)[C@H](Cc2c[nH]cn2)NC(=O)[C@H](CCC(=O)O)NC(=O)[C@H](CCC(N)=O)NC(=O)CC[C@H](NC(=O)CC[C@H](NC(=O)CC[C@H](NC(=O)CC[C@H](NC(=O)CC[C@H](NC(=O)CCCCCCCCCCCCCCCCC(=O)O)C(=O)O)C(=O)O)C(=O)O)C(=O)O)C(=O)O)CSSC[C@@H](C(=O)O)NC(=O)CNC(=O)[C@H](CC(C)C)NC(=O)CNC(=O)[C@H](CO)NC(=O)[C@H](CC(C)C)NC(=O)[C@H](CO)NC(=O)CNC1=O [Compound 9482] ({C18 diacid-γGlu-γGlu-γGlu-γGlu-γGlu}-QEHPQARKYKGAQKKGLSSGCFGLPLDRIGSLSGLGC-OH; disulfide 21-37),Fragments 2 W,[1],0
same,Isomers 2 W,[1],0
same,Loss of 18 amu 2 W,[1],0
same,Others 2 W,[1],0.3%
same,Fragments TZ,[1],0
same,Isomers TZ,[1],0
same,Loss of 18 amu TZ,[1],0
same,Others TZ,[1],0%
